Laboratory results as given in patent US6814960B1, “Hydroxystilbene compounds used as microbicidal active substances” (Ciba Specialty Chemicals Corporation, priority 1998, dated 2004).

Columns and labels:
Assay in all cases: MIC value in microtitre plates (optical density)
Format in all cases: cell-based
[1] = test system: Candida albicans ATCC 10231; conditions: microtitre plate, CASO bouillon, 48 hours at 37° C., optical density 620 nm, ≦20% growth; some data indicative values
Method: (§1) Determination of the Minimum Inhibiting Concentration (MIC Value) in Microtitre Plates
(§2) Casein/soybean flour peptone bouillon for the preparation of the precultures of the test bacteria and yeast.
(§3) Mycological slant agar for the preculture of moulds.
(§4) Examples of Test Organisms
(§5) The test substances are predissolved in dimethyl sulfoxide (DMSO) and tested in a serial dilution of 1:2.
(§6) Bacteria and yeast are cultured overnight in CASO bouillon, the mould on mycological slant agar and rinsed off with 10 ml of 0.85% sodium chloride solution (+0.1% TritonX-100).
(§7) All test organisms are adjusted to an organism count of 1.5×10^6 CFU/ml with 0.85% sodium chloride solution.
(§8) The test substances are prepipetted into microtitre plates in an amount of 8 μl per well.
(§9) Previously diluted organism substances are diluted 1:100 in CASO bouillon (bacteria and yeast) and Sabouraud 2% glucose bouillon (mould) and added to the test substances in an amount of 192 μl per well.
(§10) The test batches are incubated for 48 hours at 37° C. (bacteria and yeast) or for 5 days at 28° C. (mould).
(§11) After incubation, the growth is determined by reference to the turbidity of the test batches (optical density) at 620 nm in a microplate reader.
(§12) The minimum inhibiting concentration (MIC value) is the concentration of substance at which (compared with the growth control) an appreciable inhibition of the growth (≦20% growth) of the test organisms is ascertained.
(§13) One microtiter plate is used for each test organism and substance concentration. All substances tested in duplicate.

[2] = test system: Escherichia coli NCTC 8196; conditions: microtitre plate, CASO bouillon, 48 hours at 37° C., optical density 620 nm, ≦20% growth; some data indicative values
Method: as §1, §2, §3, §4, §5, §6, §7, §8, §9, §10, §11, §12, §13

[3] = test system: Aspergillus niger ATCC 6275; conditions: microtitre plate, Sabouraud 2% glucose bouillon, 5 days at 28° C., optical density 620 nm, ≦20% growth; some data indicative values
Method: as §1, §2, §3, §4, §5, §6, §7, §8, §9, §10, §11, §12, §13

[4] = test system: Pseudomonas aeruginosa CIP A-22; conditions: microtitre plate, CASO bouillon, 48 hours at 37° C., optical density 620 nm, ≦20% growth; some data indicative values
Method: as §1, §2, §3, §4, §5, §6, §7, §8, §9, §10, §11, §12, §13

[5] = test system: Staphylococcus hominis DSM 20328; conditions: microtitre plate, CASO bouillon, 48 hours at 37° C., optical density 620 nm, ≦20% growth; some data indicative values
Method: as §1, §2, §3, §4, §5, §6, §7, §8, §9, §10, §11, §12, §13

Compound	MIC values C. albicans [1] [ppm]	MIC values E. coli [2] [ppm]	MIC values A. niger [3] [ppm]	MIC values P. aeruginosa [4] [ppm]	MIC values S. heminis [5] [ppm]
Oc1cccc(/C=C/c2ccc(-c3ccccc3)cc2)c1 [Comp. of formula 145]	>100	>100	>100	>100	>100
COc1ccc(/C=C/c2ccc(-c3ccccc3)cc2)cc1O [Comp. of formula 146]	>100	>100	>100	>100	>100
CCOc1cc(/C=C/c2ccc(-c3ccccc3)cc2)ccc1O [Comp. of formula 147]	>100	>100	>100	>100	>100
COc1cc(/C=C/c2ccc(-c3ccccc3)cc2)ccc1O [Comp. of formula 148]	>100	>100	>100	>100	>100
Oc1ccccc1/C=C/c1ccc(-c2ccccc2)cc1 [Comp. of formula 150]	>100	>100	>100	>100	>100
COc1cc(/C=C/c2ccc(-c3ccccc3)cc2)cc(O)c1OC [Comp. of formula 151]	>100	>100	>100	>100	>100
Cc1cccc(/C=C/c2ccc(-c3ccccc3)cc2)c1O [Comp. of formula 153]	>100	>100	>100	>100	>100
Oc1ccc(/C=C/c2cccc3ccccc23)cc1 [Comp. of formula 156]	15	60	30	>100	7.5
Oc1cccc(/C=C/c2cccc3ccccc23)c1 [Comp. of formula 157]	15	15	60	>100	7.5
COc1ccc(/C=C/c2cccc3ccccc23)cc1O [Comp. of formula 158]	>100	>100	>100	>100	>100
CCOc1cc(/C=C/c2cccc3ccccc23)ccc1O [Comp. of formula 159]	>100	>100	100	>100	>100
COc1cc(/C=C/c2cccc3ccccc23)ccc1O [Comp. of formula 160]	>100	>100	100	>100	>100
Oc1ccccc1/C=C/c1cccc2ccccc12 [Comp. of formula 162]	30	30	15	>100	7.5
COc1cc(/C=C/c2cccc3ccccc23)cc(O)c1OC [Comp. of formula 163]	>100	>100	100	>100	>100
Cc1cccc(/C=C/c2cccc3ccccc23)c1O [Comp. of formula 165]	>100	>100	100	>100	100
Cc1ccccc1/C=C/c1ccc(O)cc1 [Comp. of formula 168]	15	30	30	100	7.5
Cc1ccccc1/C=C/c1cccc(O)c1 [Comp. of formula 169]	30	60	30	100	30
COc1ccc(/C=C/c2ccccc2C)cc1O [Comp. of formula 170]	>100	>100	>100	>100	>100
CCOc1cc(/C=C/c2ccccc2C)ccc1O [Comp. of formula 171]	>100	>100	>100	>100	>100
COc1cc(/C=C/c2ccccc2C)ccc1O [Comp. of formula 172]	10	>100	>100	>100	>100
Cc1ccccc1/C=C/c1ccccc1O [Comp. of formula 174]	60	100	60	>100	60
COc1cc(/C=C/c2ccccc2C)cc(O)c1OC [Comp. of formula 175]	60	60	100	100	60
Cc1ccccc1/C=C/c1cccc(C)c1O [Comp. of formula 177]	60	60	60	>100	30
Cc1ccc(/C=C/c2ccc(O)cc2)cc1 [Comp. of formula 180]	>100	>100	>100	>100	100
Cc1ccc(/C=C/c2cccc(O)c2)cc1 [Comp. of formula 181]	15	15	30	100	15
COc1ccc(/C=C/c2ccc(C)cc2)cc1O [Comp. of formula 182]	>100	>100	>100	>100	>100
